Non-standard residues stand in square brackets, D forms with d. Residues, ends and D or L forms follow the SMILES beside them. NMeY = CN[C@@H](Cc1ccc(O)cc1)C(=O)O; Nle = CCCC[C@H](N)C(=O)O; Orn = NCCC[C@H](N)C(=O)O; Abu = CC[C@H](N)C(=O)O; Aoc = NCCCCCCCC(=O)O
What was measured:
GH release [1] = assay: In vivo endocrine activity, GH release after subcutaneous administration (Table 9); details: rat, subcutaneous (s.c.) injection
Protocol: Subcutaneous Administration. Adult male rats were used and anesthetized with pentobarbital (6 mg/100 g, b.w.), by i.p. injection. […] Blood samples were taken from the jugular vein 5, 15 and/or 30 minutes after the injection. The blood samples were centrifuged, plasma was removed and the GH level was measured byELISA. The results are summarized in terms of potency in Table 9.

[2] = system: myocardial infarction (Fisher-344 rats); assay: Hemodynamic analysis (pressure-volume loops), body and heart weight after MI, compared to JI-38 (Example 15, Table 16); assay type: in vivo, rat; parameters: key to ESP (End-Systolic Pressure) / EDP (End-Diastolic Pressure) / ESV (End-Systolic Volume) / PRSW (Preload Recruitable Stroke Work) / Ees (End-systolic Elastance) / dP/dt max (peak rate of the pressure rise) / dP/dt max_EDV / dP/dt min / TAU (relaxation time constant calculated by Weiss method) / SV (Stroke Volume) / CO (Cardiac Output) / SW (Stroke Work) / EF / Ea/Ees / Ea (arterial Elastance): ↓: downward arrow denotes lower than JI-38; ↑: upward arrow denotes greater than JI-38; =denotes same as JI-38; ⬇⬇: double arrow denotes greater effect; ⬆⬆: double arrow denotes greater effect; details: rat MI model, s.c. twice daily; pressure-volume loops; expressed in comparison to JI-38
Protocol: Rats were anesthetized by intramuscular injection of a mixture of ketamine (100 mg/kg), xylazine (20 mg/kg) and acepromazine (10 mg/kg). A 2-F micromanometer tipped catheter (SPR-838, Millar Instruments, Houston, Tex.) was inserted into the right carotid artery and advanced retrograde into the left ventricle. Measurements were calibrated by injecting a hypertonic saline (15%) bolus to determine extra-ventricular conductance; relative volume units were converted to actual volume using the cuvette calibration method. All analyses were performed using PVAN 3.0 software (Millar Instruments, Houston, Tex.).
(§1) Myocardial infarction (MI) was induced by permanent ligation of the left coronary artery in female 6-month-old Fisher-344 rats. Following experimental myocardial infarction (MI), rats were randomly assigned to receive either placebo, JI-38, or one of the following new analogs of GHRH: MR-30 l(P-21301), MR-303(P-21303), MR-356(P-20356), MR-502(25502), MR-350(P-20350), MR-36 l(P-20361), MR-367(P-20367), MR-403(P-27403), MR-404(P-27404), and MR-409(P-27409) (10 rats per each group). The GHRH peptide agonists were adminsistered starting 2 hours post-surgery, 1 week, 2 week, and 4 week intervals. All treatment was given subcutaneously twice daily. Cardiac performance was assessed by serial echocardiography and hemodynamic analysis derived from pressure-volume loops as described before.
The hemodynamic studies are shown in FIGS. 16-33 and the results are summarized in Table 16 (results were expressed in comparison to JI-38; downward arrow denotes lower than JI-38; upward arrow denotes greater than JI-38; =denotes same as JI-38; and double arrow denotes greater effect).

GHRH receptor = target: T1, GHRH receptor (Homo sapiens, UniProt Q02643); assay: GHRH receptor binding, competition with 125I-labeled JV-1-42, human pituitary membrane homogenates (Table 7); parameters: Normal human pituitaries were purchased from the National Hormone and Peptide Program; tissue National Hormone and Peptide Program (A.F. Parlow, Harbor-UCLA Medical Center, Torrance, Calif.); host or cells: normal human pituitary, membrane fraction; details: JI-38 = 1, Table 7
T1 sequence (Q02643 23-423): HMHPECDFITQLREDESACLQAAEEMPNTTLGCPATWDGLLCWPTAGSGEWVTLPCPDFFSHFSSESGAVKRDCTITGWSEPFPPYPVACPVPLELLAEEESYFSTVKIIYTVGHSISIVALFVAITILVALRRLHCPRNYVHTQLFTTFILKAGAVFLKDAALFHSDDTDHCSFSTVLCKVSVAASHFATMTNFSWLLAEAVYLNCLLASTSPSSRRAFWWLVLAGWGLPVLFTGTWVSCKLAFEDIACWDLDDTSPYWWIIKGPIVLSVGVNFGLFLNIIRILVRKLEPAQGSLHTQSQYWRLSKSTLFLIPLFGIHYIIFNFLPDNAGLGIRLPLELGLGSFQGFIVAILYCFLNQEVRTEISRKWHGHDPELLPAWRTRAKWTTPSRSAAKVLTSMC
Description: Normal human pituitaries were purchased from the National Hormone and Peptide Program (A.F. Parlow, Los Angeles, County Harbor-UCLA Medical Center, Torrance, Calif.).

[3] = system: myocardial infarction (Fisher-344 rats); assay: Serial echocardiography after MI, compared to JI-38 (Example 15, Table 15); assay type: in vivo, rat; parameters: key to LVEDD: Left Ventricular End Diastolic Diameter / LVESD: Left Ventricular End Systolic Diameter / VD: Ventricular Diastole / VS: Ventricular Systole / EF: Ejection Fraction / FS: Fraction Shortening: ↓: downward arrow denotes lower than JI-38; ↑: upward arrow denotes greater than JI-38; =denotes same as JI-38; ⬇⬇: double arrow denotes greater effect; ⬆⬆: double arrow denotes greater effect; details: in comparison to JI-38
Protocol: Echocardiographic measurements were obtained at baseline, 2 days, 1, 2 and 4 weeks. Echocardiographic assessments were performed in anesthetized rats (2% isoflurane inhalation) using a Vevo-770 echocardiogram (Visual Sonics Inc., Toronto, Ontario, Canada) equipped with a 17.5-MHz transducer. Cardiac dimensions: LV end diastolic (LVEDD), end systolic (LVESD) diameters and fractional shortening (FS) were recorded from M-mode images using averaged measurements from 3 to 5 consecutive cardiac cycles according to the American Society of Echocardiography. Ejection fraction (EF) was calculated from bi-dimensional long-axis parasternal views taken through the infarcted area. All images were analyzed using Vevo 770 3.0.0 software (Visual Sonics Inc., Toronto, Ontario, Canada).
as §1
The echocardiographic experiments are shown in FIGS. 10-15 and the results are summarized in Table 15 (results were expressed in comparison to JI-38; downward arrow denotes lower than JI-38; upward arrow denotes greater than JI-38; =denotes same as JI-38; and double arrow denotes greater effect).

GH release [4] = assay: In vivo endocrine activity, GH release after intravenous administration (Table 8); details: rat, i.v. injection
Protocol: In vivo tests on endocrine activity of new GHRH agonists (Intravenous administration). For in vivo tests based on intravenous administration, adult male Sprague-Dawley rats were anesthetized with pentobarbital (6 mg/100/g, b.w.), and GHRH agonists were injected 20 minutes after the injection of pentobarbital. Blood samples were taken from the jugular vein (pretreated level), immediately after hGHRH(1-29)NH2 injection (as a control) or after hGHRH analogs injection. Blood samples were taken from the jugular vein 5, 15 and 30 minutes after the injection. The blood samples were centrifuged, plasma was removed and the GH level was measured by ELISA.

CCCC[C@H](NC(=O)[C@@H](NC(=O)[C@H](CC(=O)O)NC(=O)[C@H](CCC(N)=O)NC(=O)[C@H](CC(C)C)NC(=O)[C@H](CC(C)C)NC(=O)[C@H](CCCN)NC(=O)[C@H](CCCNC(=N)N)NC(=O)[C@H](C)NC(=O)[C@H](CO)NC(=O)[C@H](CC(C)C)NC(=O)[C@H](CCC(N)=O)NC(=O)[C@H](CC)NC(=O)[C@H](CC(C)C)NC(=O)[C@@H](NC(=O)[C@H](CCCN)NC(=O)[C@H](CCCNC(=N)N)NC(=O)[C@H](Cc1ccc(O)cc1)NC(=O)[C@H](CO)NC(=O)[C@H](CC(N)=O)NC(=O)[C@@H](NC(=O)[C@H](Cc1ccccc1)NC(=O)[C@@H](NC(=O)[C@H](C)NC(=O)[C@H](CC(=O)O)NC(=O)[C@@H](C)NC(=O)[C@H](Cc1ccc(O)cc1)NC)[C@@H](C)CC)[C@@H](C)O)C(C)C)[C@@H](C)CC)C(=O)N[C@@H](CC(=O)O)C(=O)N[C@@H](CCCNC(=N)N)C(=O)NCCCCCCCC(N)=O [Peptide P-21303, [N—Me-Tyr^1, D-Ala^2, Orn^12, Abu^15, Orn^21, Nle^27, Asp^28, Amc^30]hGHRH(1-30)NH2] (H-[NMeY][dA]DAIFTNSYR[Orn]VL[Abu]QLSAR[Orn]LLQDI[Nle]DR[Aoc]-NH2)
1.14: GH releasing potency in vivo relative to JI-38 (=1) (GH release [4]; 15 min after)
=: CO (Cardiac Output) [2] | ESV (End-Systolic Volume) [2] | Ea (arterial Elastance) [2] | Ea/Ees [2] | SV (Stroke Volume) [2] | SW (Stroke Work) [2] | TAU (relaxation time constant calculated by Weiss method) [2] | dP/dt min [2] | FS: Fraction Shortening [3] | LVEDD: Left Ventricular End Diastolic Diameter [3] | LVESD: Left Ventricular End Systolic Diameter [3]
0.95: GH releasing potency relative to JI-38 (=1) (GH release [1]; 15 min after)
↓: ESP (End-Systolic Pressure) [2] | Ees (End-systolic Elastance) [2] | PRSW (Preload Recruitable Stroke Work) [2] | dP/dt max (peak rate of the pressure rise) [2] | dP/dt max_EDV [2] | EF: Ejection Fraction [3]
↑: EDP (End-Diastolic Pressure) [2] | EF [2] | VD: Ventricular Diastole [3] | VS: Ventricular Systole [3]
0.81: GH releasing potency in vivo relative to JI-38 (=1) (GH release [4]; 30 min after)
1.45: GH releasing potency relative to JI-38 (=1) (GH release [1]; 30 min after)
0.79: GH releasing potency in vivo relative to JI-38 (=1) (GH release [4]; 5 min after)
2.32: Relative affinity (Binding potency) vs JI-38 (GHRH receptor)

— patent publication US10555987B2, “GHRH agonists for the treatment of ischemic disorders” (UNIVERSITY OF MIAMI, priority 2012, dated 2020)
